# Source: publication PMC7918798, “Coumarins from Seseli devenyense Simonk.: Isolation by Liquid–Liquid Chromatography and Potential Anxiolytic Activity Using an In Vivo Zebrafish Larvae Model” (International Journal of Molecular Sciences, 2021)
# Entries after “also recorded” stand apart in the source; their conditions may differ.
# Assays:
# [1] = Shake-flask partition coefficient in HEMWat biphasic solvent systems; format: physicochemical
# Protocol: The screening for suitable biphasic solvent systems to isolate the target coumarins from Seseli devenyense methanolic fruit extract (SDMFE) was performed by shake-flask experiments. The partition coefficient (Pi), defined as the ratio of the concentration of a solute in the stationary phase to its concentration in the mobile phase, was used as the screening parameter. The experimental protocol was previously descried by Widelski et al. (2018). Briefly, 1 mg of crude extract was dissolved in 4 mL of biphasic solvent systems obtained by mixing various volumes of hexane, ethyl acetate, methanol and water (HEMWat). After vigorous shaking, the flasks were left until the complete separation of the layers. Then, equal volumes of the upper and lower phase (0.5 mL) were taken, evaporated to dryness, dissolved again in methanol (1.0 mL) and analyzed by HPLC-DAD analysis, as descried below.
# The preliminary analysis of the SDMFE, determination of the partition coefficient values and purity of collected fractions were assessed by HPLC-DAD. The HPLC-DAD analyses were performed on a Shimadzu HPLC (Shimadzu, Tokyo, Japan) equipped with automatic degasser (DGU-20A3R), quaternary pump (LC-20AD), auto-sampler (SIL-20AHT) and diode array detector (SPD-M20A). The separations were carried out on an Agilent Zorbax Eclipse XDB-C18 (Agilent, Santa Clara, CA, USA) (250 mm × 4.6 mm, 5 μm) column with a mobile phase consisting of water (solvent A) and methanol (solvent B). The following gradient was applied: 0 min: 50% B; 5 min: 60% B; 25 min: 80% B; 30–35 min: 100% B. The flow-rate was 1 mL/min; the column temperature was set at 25 °C. The injection volume of sample was 10 μL and detection was carried out at 320 nm.
# [2] = tested on: 5-dpf zebrafish larvae; assay: Zebrafish larvae light/dark transition challenge: locomotor activity and thigmotaxis (anxiolytic activity assay, Phase 2); format: in vivo, Danio rerio; conditions: for distance moved by the larvae in the central arena / time spent in the central area: dark phase vs light phase, concentration not stated
# Protocol: (§1) The research protocol was adopted after Schnorr et al. (2012). The anxiolytic activity was evaluated in 24-well plates. The inner and outer zones of the well were delineated according to Schnorr et al. (2012). […] It could be also described as decreasing thigmotaxis. 1% DMSO in E3 solution was used as the negative control, 10 μM diazepam was used as the positive control. 32 larvae were used for each concentration.
# (§2) The experimental procedure was divided into three stages: • (a) Preincubation: larvae were pre-incubated in a 1500 μL solution of tested compounds in individual wells of a 24-well plate at 28.5 °C, in dark, for 30 min. • (b) Acclimatization (min 0–10): plates were placed in an automated video recording bench station (ViewPoint, Lyon, France). Larvae were allowed to acclimatize to the test apparatus for 10 min. During this period, lights were kept on. • (c) Visual motor challenge (min 11–95): this stage experiment was divided into two phases: Phase 1—continuous illumination: larvae were subjected to continuous light for 40 min, with the purpose to determine the spontaneous locomotor activity and thigmotaxis behavior (before applying the factor causing the anxiety). Phase 2—light/dark transition: larvae were subjected to three cycles, each involving the 10-min lighting phase (continuous light) and the 5-min dark phase (anxiogenic factor).
# [3] = tested on: 5-dpf zebrafish larvae; assay: Zebrafish larvae 40 min continuous illumination: spontaneous locomotor activity and thigmotaxis (Phase 1); format: in vivo, Danio rerio; conditions: for spontaneous locomotor activity (average distance moved): 40 min continuous illumination
# Protocol: as §1, §2
# [4] = solvent system I, hexane/ethyl acetate/methanol/water 2/5/2/5 (v/v/v/v)
# [5] = dark phase vs DMSO-treated group in dark phase, 1.5 μM
# [6] = dark phase vs DMSO-treated group in dark phase, 9 μM
# [7] = dark phase vs DMSO-treated group in dark phase, 12.5 μM
# [8] = dark phase vs DMSO-treated group in dark phase, 25 μM
# [9] = dark phase vs light phase within same group, 1.5 μM
# [10] = dark phase vs light phase within same group, 3 μM
# [11] = dark phase vs light phase within same group, 6 μM
# [12] = dark phase vs light phase within same group, 9 μM
# [13] = dark phase vs light phase within same group, 12.5 μM
# [14] = dark phase vs light phase within same group, 25 μM
# [15] = dark phase vs DMSO-treated group in dark phase, 50 μM
# [16] = dark phase vs light phase within same group, 50 μM
# [17] = light phase vs DMSO-treated group in light phase, 12.5 μM
# [18] = light phase vs DMSO-treated group in light phase, 25 μM
# [19] = light phase vs DMSO-treated group in light phase, 50 μM
# [20] = dark phase vs DMSO-treated group in dark phase, 6 μM
# [21] = dark phase vs DMSO-treated group in dark phase, 15 μM
# [22] = dark phase vs light phase within same group, 15 μM
# [23] = dark phase vs DMSO-treated group in dark phase, diazepam 10 μM
# [24] = dark phase vs light phase within same group, diazepam 10 μM
# [25] = light phase vs DMSO-treated group in light phase, diazepam 10 μM
# [26] = 40 min continuous illumination vs DMSO-treated control group, diazepam 10 µM
compound,measurement,setting,value
CC1(C)Oc2ccc3ccc(=O)oc3c2[C@H](O)[C@@H]1O [cis-khellactone],Partition Coefficients (Pi),[1]; [4],2.50
same,percentage of time spent in central area,[2]; [5],significant increases
same,percentage of time spent in central area,"[2]; dark phase vs DMSO-treated group in dark phase, 3 μM",significant increases
same,percentage of time spent in central area,[2]; [6],significant increases
same,percentage of time spent in central area,[2]; [7],significant increases
same,percentage of time spent in central area,[2]; [8],significant increases
same,percentage of distance moved in central area,"[2]; dark phase vs DMSO-treated group in dark phase, all tested concentrations (1.5, 3, 6, 9, 12.5, 25 μM)",not observed
same,locomotor activity (average distance moved per 1-min time bin),[2]; [9],increase
same,percentage of distance moved in central area,[2]; [9],increase
same,percentage of time spent in central area,[2]; [9],increase
same,locomotor activity (average distance moved per 1-min time bin),[2]; [10],increase
same,percentage of time spent in central area,[2]; [10],increase
same,locomotor activity (average distance moved per 1-min time bin),[2]; [11],increase
same,percentage of distance moved in central area,[2]; [11],increase
same,locomotor activity (average distance moved per 1-min time bin),[2]; [12],increase
same,percentage of distance moved in central area,[2]; [12],increase
same,locomotor activity (average distance moved per 1-min time bin),[2]; [13],increase
same,percentage of distance moved in central area,[2]; [13],increase
same,percentage of time spent in central area,[2]; [13],increase
same,locomotor activity (average distance moved per 1-min time bin),[2]; [14],increase
same,percentage of distance moved in central area,[2]; [14],increase
same,percentage of time spent in central area,[2]; [14],increase
same,percentage of time spent in central area,"[2]; light phase vs DMSO-treated group in light phase, 6 μM",significant increase
same,percentage of time spent in central area,"[2]; light phase vs DMSO-treated group in light phase, 9 μM",significant increase
same,locomotor activity (average distance moved per 1-min time bin),"[2]; light phase vs DMSO-treated group in light phase, all tested concentrations (1.5, 3, 6, 9, 12.5, 25 μM)",not noticed
same,anxiolytic activity (authors' overall statement),[2]; zebrafish larvae model,weakest activity
same,spontaneous locomotor activity (average distance moved),"[3]; all tested concentrations (1.5, 3, 6, 9, 12.5, 25 µM)",has not influenced
same,time spent in the central arena,"[3]; 40 min continuous light, one-way ANOVA between tested groups, 1.5, 3, 6, 9, 12.5, 25 µM",not showed
C/C=C(/C)C(=O)O[C@H]1c2c(ccc3ccc(=O)oc23)OC(C)(C)[C@H]1O [d-laserpitin],Partition Coefficients (Pi),"[1]; solvent system II, hexane/ethyl acetate/methanol/water 6/5/6/5 (v/v/v/v)",0.84
same,locomotor activity (average distance moved per 1-min time bin),[2]; [7],significant decreases
same,percentage of distance moved in central area,[2]; [7],significant increases
same,percentage of time spent in central area,[2]; [7],significant increases
same,locomotor activity (average distance moved per 1-min time bin),[2]; [8],significant decreases
same,percentage of distance moved in central area,[2]; [8],significant increases
same,percentage of time spent in central area,[2]; [8],significant increases
same,locomotor activity (average distance moved per 1-min time bin),[2]; [15],significant decreases
same,percentage of distance moved in central area,[2]; [15],significant increases
same,percentage of time spent in central area,[2]; [15],significant increases
same,percentage of distance moved in central area,[2]; [13],increase
same,locomotor activity (average distance moved per 1-min time bin),[2]; [14],increase
same,percentage of distance moved in central area,[2]; [14],increase
same,percentage of time spent in central area,[2]; [14],increase
same,locomotor activity (average distance moved per 1-min time bin),[2]; [16],increase
same,percentage of distance moved in central area,[2]; [16],increase
same,percentage of time spent in central area,[2]; [16],increase
same,distance moved by the larvae in the central arena,[2],significantly increased
same,time spent in the central area,[2],significantly increased
same,percentage of distance moved in central area,[2]; [17],decreased
same,percentage of time spent in central area,[2]; [17],significant increase
same,percentage of distance moved in central area,[2]; [18],significant increase
same,percentage of time spent in central area,[2]; [18],significant increase
same,percentage of distance moved in central area,[2]; [19],significant increase
same,percentage of time spent in central area,[2]; [19],significant increase
same,spontaneous locomotor activity (average distance moved),"[3]; all concentrations (12.5, 25, 50 µM)",has not influe nced
CC(C)(O)C(O)Cc1c(O)ccc2ccc(=O)oc12 (stereo not drawn) [devenyol],Partition Coefficients (Pi),[1]; [4],0.80
same,anxiolytic activity (authors' overall statement),"[2]; concentrations of 1.5, 6, 9 and 15 μM",active
same,locomotor activity (average distance moved per 1-min time bin),[2]; [5],decreases
same,percentage of distance moved in central area,[2]; [5],significant increases
same,percentage of time spent in central area,[2]; [5],significant increase
same,percentage of distance moved in central area,[2]; [20],significant increases
same,percentage of time spent in central area,[2]; [20],significant increase
same,percentage of distance moved in central area,[2]; [6],significant increases
same,percentage of time spent in central area,[2]; [6],significant increase
same,percentage of distance moved in central area,[2]; [21],significant increases
same,percentage of time spent in central area,[2]; [21],significant increase
same,locomotor activity (average distance moved per 1-min time bin),[2]; [9],significant increases
same,percentage of distance moved in central area,[2]; [9],increase
same,locomotor activity (average distance moved per 1-min time bin),[2]; [10],significant increases
same,percentage of distance moved in central area,[2]; [10],increase
same,locomotor activity (average distance moved per 1-min time bin),[2]; [11],significant increases
same,percentage of distance moved in central area,[2]; [11],increase
same,locomotor activity (average distance moved per 1-min time bin),[2]; [12],significant increases
same,percentage of distance moved in central area,[2]; [12],increase
same,locomotor activity (average distance moved per 1-min time bin),[2]; [22],significant increases
same,percentage of distance moved in central area,[2]; [22],increase
same,percentage of time spent in central area,"[2]; dark phase vs light phase within same group, all concentrations (1.5, 3, 6, 9, 15 μM)",increase
same,distance moved by the larvae in the central arena,[2],significantly increased
same,time spent in the central area,[2],significantly increased
same,spontaneous locomotor activity (average distance moved),"[3]; all concentrations (1.5, 3, 6, 9, 15 µM)",has not influenced
"CN1C(=O)CN=C(c2ccccc2)c2cc(Cl)ccc21 [diazepam, reference compound]",locomotor activity (average distance moved per 1-min time bin),[2]; [23],significant decreases; also recorded: decrease
same,percentage of distance moved in central area,[2]; [23],significant increases
same,percentage of time spent in central area,[2]; [23],significant increases
same,percentage of distance moved in central area,[2]; [24],increase
same,percentage of time spent in central area,[2]; [24],increase
same,distance moved by the larvae in the central arena,[2],significantly increased
same,time spent in the central area,[2],significantly increased
same,percentage of distance moved in central area,[2]; [25],significant increase
same,percentage of time spent in central area,[2]; [25],significant increase
same,percentage of distance moved in the central arena,[3]; [26],increased
same,percentage of time spent in the central arena,[3]; [26],increase
